Data reported in ChEMBL document CHEMBL1201862, “PubChem BioAssay data set” (2004).
Calls of active or inactive are those of the source.

What was measured:
[1] = molecular target: Heat shock protein HSP 90-alpha (Homo sapiens, UniProt P07900); type: functional, organism-based
Cytochrome P450 2C9 = Cytochrome P450 2C9 (Homo sapiens, UniProt P11712)
Cytochrome P450 1A2 = molecular target: T1, Cytochrome P450 1A2 (Homo sapiens, UniProt P05177);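 further: PubChem cytochrome P450 panel assay, CYP1A2 panel member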
T1 sequence (P05177 whole entry): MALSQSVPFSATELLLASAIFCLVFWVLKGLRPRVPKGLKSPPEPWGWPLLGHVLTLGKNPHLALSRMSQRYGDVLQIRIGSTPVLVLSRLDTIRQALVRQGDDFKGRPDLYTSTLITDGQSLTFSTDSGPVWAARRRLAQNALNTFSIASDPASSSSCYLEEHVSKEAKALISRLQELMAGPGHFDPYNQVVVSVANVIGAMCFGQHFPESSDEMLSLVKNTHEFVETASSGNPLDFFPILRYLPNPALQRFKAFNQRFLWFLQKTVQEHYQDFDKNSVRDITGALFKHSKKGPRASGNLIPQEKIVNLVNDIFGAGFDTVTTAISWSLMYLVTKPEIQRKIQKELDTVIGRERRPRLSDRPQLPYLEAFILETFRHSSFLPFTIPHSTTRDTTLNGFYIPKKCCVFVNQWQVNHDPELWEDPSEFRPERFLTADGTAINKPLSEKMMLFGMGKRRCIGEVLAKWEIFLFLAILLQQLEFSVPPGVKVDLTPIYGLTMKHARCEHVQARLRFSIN

Streptococcus = test: GAS UMAA2166 growth inhibition – luminescence, BacTiterGlo, counter-screen for streptokinase expression inhibitor project, dose response (AID 1915); type: functional, organism-based;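 further: potency for reduction of bacterial viability or growth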
Streptokinase A = molecular target: T2, Streptokinase A (Streptococcus pyogenes serotype M1, UniProt P10520); test: viability-normalized secreted streptokinase activity reduction – plasminogen activation absorbance, OD405, dose response (AID 1914); type: functional, Streptococcus pyogenes M1 GAS;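 further: secreted streptokinase activity via plasminogen activation per viability signal from cell pellet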
T2 sequence (P10520 whole entry): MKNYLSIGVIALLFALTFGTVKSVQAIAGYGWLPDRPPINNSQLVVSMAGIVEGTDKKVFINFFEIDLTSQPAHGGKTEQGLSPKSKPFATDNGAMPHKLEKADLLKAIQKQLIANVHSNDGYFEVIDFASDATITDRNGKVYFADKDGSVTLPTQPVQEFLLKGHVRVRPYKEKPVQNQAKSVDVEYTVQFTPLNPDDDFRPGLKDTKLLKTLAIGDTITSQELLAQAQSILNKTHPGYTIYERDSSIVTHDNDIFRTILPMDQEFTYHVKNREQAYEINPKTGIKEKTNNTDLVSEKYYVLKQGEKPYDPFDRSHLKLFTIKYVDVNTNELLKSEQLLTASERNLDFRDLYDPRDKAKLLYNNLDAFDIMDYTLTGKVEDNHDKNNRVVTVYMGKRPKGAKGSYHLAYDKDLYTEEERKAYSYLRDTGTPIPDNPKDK

[2] = system: Streptococcus sp. 'group A'; test: Streptococcus pyogenes SK(-)GAS viability under kanamycin – luminescence, BacTiterGlo, confirmation, counter-screen for streptokinase expression inhibitor project, dose response (AID 1900); type: functional, organism-based
[3] = Luminescence Cell-Based Dose Retest to Confirm Inhibitors of Cancer Stem Cells. [Related pubchem assays (depositor defined):AID2717, AID2721]; type: functional; settings: Homo sapiens

Sequence of Cytochrome P450 2C9 (P11712 whole entry): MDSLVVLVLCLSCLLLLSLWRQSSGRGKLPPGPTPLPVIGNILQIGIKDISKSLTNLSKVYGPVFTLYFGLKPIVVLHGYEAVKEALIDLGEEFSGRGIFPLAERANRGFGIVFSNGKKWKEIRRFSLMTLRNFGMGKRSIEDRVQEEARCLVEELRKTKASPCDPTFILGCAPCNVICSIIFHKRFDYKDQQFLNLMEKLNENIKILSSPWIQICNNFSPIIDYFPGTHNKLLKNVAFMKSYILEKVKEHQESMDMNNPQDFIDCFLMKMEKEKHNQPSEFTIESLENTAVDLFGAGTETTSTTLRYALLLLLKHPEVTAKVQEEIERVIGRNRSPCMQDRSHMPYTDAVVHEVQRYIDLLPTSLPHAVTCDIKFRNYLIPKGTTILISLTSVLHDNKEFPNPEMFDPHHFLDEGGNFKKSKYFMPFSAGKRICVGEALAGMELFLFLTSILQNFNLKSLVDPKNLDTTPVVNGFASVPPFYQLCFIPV

With `COc1cc2c(cc1OC)C(=O)N1[C@H]3c4ccccc4OC[C@@H]3[C@H](c3ccccc3)[C@]1(C)C(=O)N2` the AC50 [1] was 9.07 µM (active).
For `CCOc1ccccc1NC(=O)C1Cc2ccccc2CN1S(C)(=O)=O` (stereo not drawn), the AC50 (Cytochrome P450 2C9) was “inconclusive” and the AC50 (Cytochrome P450 1A2) was 39.8 µM (inconclusive).
With `CC(C)(C)c1cc(NCc2ccccn2)n2ncc(-c3ccccc3)c2n1` the EC50 (Streptococcus) was 13.8 µM (active), the EC50 (Streptokinase A) was 30 µM (active) and the AC50 [1] was 1.63 µM (active). The EC50 [2] was 0.722 µM (active) and the AC50 [3] was 6.82 µM (active).
